Experimental data: article PMC2778643, “Differential role of the menthol-binding residue Y745 in the antagonism of thermally gated TRPM8 channels” (Molecular Pain, 2009)
Like-named read-outs stand apart in the source and are kept apart here.

What was measured:
[1] = tested on: TRPM8-wt channel; settings: electrophysiology (EP), +80 mV, cited from earlier work
[2] = molecular target: T1, TRPM8-wt channel (Mus musculus, UniProt Q8R4D5); assay: Whole-cell patch clamp of HEK293 cells expressing TRPM8-wt; assay type: cell-based; settings: for Inhibition of voltage-activated TRPM8-wt current: 33°C, +120 mV
T1 construct: The full length cDNA encoding mouse TRPM8 (NM_134252) in pcDNA5; expressed in transfected cells; host or cells: HEK293
T1 sequence (Q8R4D5 whole entry): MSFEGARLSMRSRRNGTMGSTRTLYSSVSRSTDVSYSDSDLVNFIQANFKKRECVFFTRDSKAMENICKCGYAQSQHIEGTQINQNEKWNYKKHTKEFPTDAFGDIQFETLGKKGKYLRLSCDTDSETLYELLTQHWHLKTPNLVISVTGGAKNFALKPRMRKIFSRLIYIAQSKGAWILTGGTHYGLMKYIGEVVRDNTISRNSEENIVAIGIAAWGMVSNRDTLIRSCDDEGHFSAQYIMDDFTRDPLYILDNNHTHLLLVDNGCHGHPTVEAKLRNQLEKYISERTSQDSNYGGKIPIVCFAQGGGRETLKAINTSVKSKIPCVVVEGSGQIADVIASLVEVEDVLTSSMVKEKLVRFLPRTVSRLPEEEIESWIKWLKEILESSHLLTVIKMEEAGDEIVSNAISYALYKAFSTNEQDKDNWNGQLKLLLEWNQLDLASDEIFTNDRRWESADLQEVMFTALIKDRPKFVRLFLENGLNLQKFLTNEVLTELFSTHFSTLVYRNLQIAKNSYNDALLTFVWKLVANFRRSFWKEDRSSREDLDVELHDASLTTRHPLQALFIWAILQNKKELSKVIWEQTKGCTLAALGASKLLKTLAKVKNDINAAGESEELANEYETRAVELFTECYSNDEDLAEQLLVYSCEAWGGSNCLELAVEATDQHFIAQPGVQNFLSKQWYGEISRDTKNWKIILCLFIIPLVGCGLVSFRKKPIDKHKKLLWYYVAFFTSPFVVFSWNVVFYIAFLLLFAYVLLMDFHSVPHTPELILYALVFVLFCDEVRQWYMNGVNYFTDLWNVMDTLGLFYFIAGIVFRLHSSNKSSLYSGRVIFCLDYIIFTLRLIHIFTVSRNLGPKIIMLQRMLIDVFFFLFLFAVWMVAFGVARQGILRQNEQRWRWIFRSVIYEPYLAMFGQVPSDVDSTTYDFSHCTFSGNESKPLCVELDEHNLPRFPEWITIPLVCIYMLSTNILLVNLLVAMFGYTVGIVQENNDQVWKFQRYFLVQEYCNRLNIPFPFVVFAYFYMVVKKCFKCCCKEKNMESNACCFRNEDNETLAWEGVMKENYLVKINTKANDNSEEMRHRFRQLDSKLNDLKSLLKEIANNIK
Protocol: (§1) The full length cDNA encoding mouse TRPM8 (NM_134252) in pcDNA5 (Invitrogen) was kindly provided by Dr. Ardem Patapoutian, (Scripps Research Institute, La Jolla, CA). The TRPM8-Y745H mutant was obtained by site-directed mutagenesis with the following primers: (for) 5'-[…]-3'; (rev) 5'-[…]-3', and Pfu Turbo Taq DNA Polymerase (Roche).
(§2) HEK293 cells were cultured in DMEM containing 10% of foetal bovine serum and antibiotics, and plated in 2 cm^2 wells at 400.000-500.000 cells/well. 20-24 h after plating, the cells were co-transfected with eGFP (0.3 μg/well) and TRPM8-wt or TRPM8-Y745H (2 μg/well) by incubating them with a solution containing the plasmid DNA and Lipofectamine 2000 (Invitrogen) for 5 hours. Subsequently, the cells were trypsinized and replated on poly-L-lysine-coated round coverslips (6 mm diameter). 20-48 h post-transfection, GFP(+) cells were selected for calcium imaging or electrophysiology experiments.
(§3) Whole-cell voltage-clamp recordings of TRPM8-wt/Y745H transfected HEK293 cells were performed simultaneously with temperature recordings. Current development was monitored at a holding potential of -60 mV. For information on voltage-dependent effects, 1.25-s-duration voltage ramps from -100 to +150 mV were delivered at desired time points. Standard patch-pipettes (3-5 MΩ) were made of borosilicate glass capillaries (Harvard Apparatus Ltd, UK), and contained (in mM): 150 NaCl, 3 MgCl2, 5 EGTA, 10 HEPES, (278 mOsm/kg; pH 7.2, adjusted with NaOH). During electrophysiological recordings, a divalent cation -free bath solution was used to minimize desensitization, which contained: 150 NaCl, 10 EDTA, 10 HEPES and 10 glucose (pH 7.4 with NaOH). The divalent-free solution was used in the preparation of all chemical modulator containing solutions. Current signals were recorded with an Axopatch 200B patch-clamp amplifier (Molecular Devices, Sunnyvale, CA, U.S.A.) applying series resistance compensation (60-90%). Stimulus delivery and data acquisition were performed using pClamp 9 software (Molecular Devices). Data were sampled at 5 kHz (ramps) and 1 kHz (timecourse) and filtered online at 2 kHz.
(§4) Coverslip pieces with cultured cells were placed in a microchamber and continuously perfused with solutions warmed at 33°C. The temperature was adjusted with a water-cooled Peltier device placed at the inlet of the chamber, and controlled by a feedback device. Cold-sensitivity was investigated with a temperature decrease to 18-20°C (Figure 1B).
Experiments were always performed in parallel with cells expressing TRPM8-wt and TRPM8-Y745H to minimize any day-to-day variability in experimental conditions. […]

[3] = molecular target: T2, TRPM8-Y745H mutant channel (Mus musculus, UniProt Q8R4D5, Y745H); assay: Calcium imaging (Fura-2) of HEK293 cells expressing TRPM8-Y745H; assay type: cell-based
T2 construct: The full length cDNA encoding mouse TRPM8 (NM_134252) in pcDNA5; expressed in transfected cells; host or cells: HEK293
T2 sequence (Q8R4D5 whole entry Y745H): as the sequence (Q8R4D5 whole entry) above, with Y745H counted along it
Protocol: as §1, §2
(§5) Prior to experiment, HEK293 cells transfected with the TRPM8-wt/Y745H constructs were incubated with 5 μM Fura-2AM dissolved in the bath solution and 0.02% Pluronic (both from Invitrogen) for 40 min at 37°C in darkness. Fluorescence measurements were made with a Leica DM IRE2 inverted microscope fitted with a CCD camera (Imago QE Sensicam, TillPhotonics, Graefelfing, Germany). Fura-2 was excited at 340 nm and 380 nm with a Polychrome IV monochromator (Till Photonics) and the emitted fluorescence was filtered with a 510 nm longpass filter.
as §4

[4] = molecular target: T2, TRPM8-Y745H mutant channel; assay: Whole-cell patch clamp of HEK293 cells expressing TRPM8-Y745H; assay type: cell-based; settings: for Inhibition of voltage-activated TRPM8-Y745H current: +120 mV
Protocol: as §1, §2, §3, §4
Experiments were always performed in parallel with cells expressing TRPM8-wt and TRPM8-Y745H to minimize any day-to-day variability in experimental conditions. To estimate the shifts in the voltage-dependence of activation of TRPM8-wt/Y745H in HEK293 cells, current-voltage (I-V) relationships from voltage ramps were fitted with an equation that combines a linear conductance multiplied by a Boltzmann activation term: [drawing 1]

[5] = tested on: TRPM8-wt channel; settings: calcium imaging (CI), cited from earlier work
[6] = molecular target: T1, TRPM8-wt channel; assay: Calcium imaging (Fura-2) of HEK293 cells expressing TRPM8-wt; assay type: cell-based
Protocol: as §1, §2, §5, §4

[7] = molecular target: T1, TRPM8-wt channel; parameters: method as in PMID 14757700; settings: 100 μM menthol-activated TRPM8-wt, FLIPR; cited from earlier work
[8] = Solubility in the extracellular solution; assay type: physicochemical; settings: reproducible data above 20 μM complicated
[9] = cold-activated TRPM8-wt, read-out: IC50 cold (converted)
[10] = 3 μM antagonist, compared with TRPM8-wt
[11] = 100 μM menthol-activated TRPM8-wt, modified from ref 25, read-out: IC50 menthol
[12] = cold-activated TRPM8-wt, read-out: IC50 cold
[13] = 100 μM, at 33°C or during cooling

## COc1ccc(CCCOC(Cn2ccnc2)c2ccc(OC)cc2)cc1 (centres unmarked) [SKF96365]
[1]; [9]
  IC50: 800 nM
[2]; 3 μM
  Block of cold-evoked TRPM8-wt current: potent antagonism
  Inhibition of voltage-activated TRPM8-wt current: strong inhibition
[2]; TRPM8-wt, cooling, 3 μM SKF96365
  Apparent gating charge during antagonist application: 0.73 ± 0.04
[3]; [10]
  Block of cold-evoked [Ca2+]i response of TRPM8-Y745H: nearly complete loss of effect
[3]; 20 μM (super saturating concentration), compared with 3 μM
  Block of cold-evoked [Ca2+]i response of TRPM8-Y745H: unable to increase block
[4]; 3 μM
  Block of cold-evoked TRPM8-Y745H current: completely failed to block
[4]; 20 μM
  Block of cold-evoked TRPM8-Y745H current: lacked any inhibitory effects
[4]; 33°C, 3 μM
  Inhibition of voltage-activated TRPM8-Y745H current: fully abrogated the inhibition
[4]; TRPM8-Y745H, cooling, 3 μM SKF96365
  Apparent gating charge during antagonist application: 0.63 ± 0.04
[5]; [11]
  IC50: 3000 ± 1000 nM
[5]; [12]
  IC50: 1000 ± 200 nM

## CC1CCC(C(C)C)C(O)C1 [menthol, L-menthol]
[3]; [13]
  Agonist effect on intracellular calcium, TRPM8-Y745H: lack of menthol responses
[4]; 100 μM, 33°C, all potentials
  Agonist effect on whole-cell current, TRPM8-Y745H: completely insensitive to menthol
[6]; [13]
  Agonist effect on intracellular calcium, TRPM8-wt: increase the intracellular calcium levels

## Oc1cc2c(cc1O)CN(C(=S)NCCc1ccc(Cl)cc1)CCC2 [Capsazepine, N-[2-(4-Chlorophenyl)ethyl]-1,3,4,5-tetrahydro-7,8-dihydroxy-2H-2-benzazepine-2-carbothioamide]
[7]
  IC50: 18000 ± 1000 nM
[3]; calcium imaging, cooling-activated
  Inhibitory potency at cooling-activated TRPM8-Y745H compared with wild-type (dose-inhibition curves): lost part of their inhibitory potential
[6]; cold-activated TRPM8-wt, calcium imaging (CI), this work
  IC50: 12000 ± 2000 nM

## Clc1ccccc1C(c1ccccc1)(c1ccccc1)n1ccnc1 [Clotrimazole, 1-[(2-chlorophenyl)diphenylmethyl]-1H-imidazole]
[8]
  Solubility in the extracellular solution: limited solubility

## c1c[nH]cn1 [Imidazole, 1,3-diazacyclopenta-2,4-diene]
[3]; 20 μM, 100 μM and 1 mM
  Inhibition of cooling-activated TRPM8-Y745H: ineffective
[6]; 20 μM, 100 μM and 1 mM
  Inhibition of cooling-activated TRPM8 wild-type: ineffective

## CC(C)(C)c1ccc(NC(=O)N2CCN(c3ncccc3Cl)CC2)cc1 [BCTC, 4-[3-chloro-pyridin-2-yl]-piperazine-1-carboxylic acid [4-tert-butyl-phenyl]-amide]
[1]; 100 μM menthol-activated TRPM8-wt, modified from ref 25, read-out: IC50 menthol (converted)
  IC50: 340 nM
[1]; [9]
  IC50: 540 nM
[2]; 3 μM
  Inhibition of voltage-activated TRPM8-wt current: strong inhibition
[3]; [10]
  Block of cold-evoked [Ca2+]i response of TRPM8-Y745H: maintained its full and reversible blocking potential
[4]; 3 μM, +80 mV
  Block of cooling-activated TRPM8-Y745H current: 98%
[4]; 33°C, 3 μM
  Inhibition of voltage-activated TRPM8-Y745H current: without affecting the block
[5]; [11]
  IC50: 470 ± 10 nM
[5]; [12]
  IC50: 680 ± 60 nM
